These results are taken from ChEMBL document CHEMBL1201862, “PubChem BioAssay data set” (2004).

Experiment [1] is described as follows: inhibitors of intracellular T. cruzi replication, confirmation, NIH3T3 host cells, beta-gal luminescence (AID 2044).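 Further: intracellular parasites grown in NIH/3T3 mouse fibroblasts as host cells; luminescent beta-galactosidase reporter signal from transgenic T. cruzi replicating inside host cells; inhibitors lower the luminescence signal.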 Format: functional, cell-based.
Experiment [2] can be described thus: cytotoxicity toward NIH3T3 fibroblasts, dose response, counter-screen, cell-based, ATP luminescence, mouse fibroblasts (AID 2010).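 Further: cells exposed to compound for about 90 hours before reading.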 In kind it is functional. Background: Counterscreens check selectivity or assay interference.
Experiment [3] can be described thus: Counterscreen for AddAB inhibitors: absorbance-based bacterial cell-based high throughput dose response assay for inhibitors of bacterial viability. [Related pubchem assays (depositor defined):AID435030, AID449728, AID449731, AID488942, AID488955, AID488956]. Format: functional.
The subject of experiment [4] is INS1. Briefly: beta cell apoptosis inhibitors, cytokine rescue, dose response, luminescence, retest (AID 449756).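 Further: cell death triggered by IL-1 beta plus TNF-alpha plus IFN-gamma mixture; protective hits raise ATP signal compared with cytokine alone wells.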 In kind it is functional, cell-based. To be noted: Rattus norvegicus.
Experiment [5] concerns the target T1, Replicative DNA helicase DnaB (Mycobacterium tuberculosis, UniProt P9WMR3).
T1 sequence (P9WMR3 whole entry): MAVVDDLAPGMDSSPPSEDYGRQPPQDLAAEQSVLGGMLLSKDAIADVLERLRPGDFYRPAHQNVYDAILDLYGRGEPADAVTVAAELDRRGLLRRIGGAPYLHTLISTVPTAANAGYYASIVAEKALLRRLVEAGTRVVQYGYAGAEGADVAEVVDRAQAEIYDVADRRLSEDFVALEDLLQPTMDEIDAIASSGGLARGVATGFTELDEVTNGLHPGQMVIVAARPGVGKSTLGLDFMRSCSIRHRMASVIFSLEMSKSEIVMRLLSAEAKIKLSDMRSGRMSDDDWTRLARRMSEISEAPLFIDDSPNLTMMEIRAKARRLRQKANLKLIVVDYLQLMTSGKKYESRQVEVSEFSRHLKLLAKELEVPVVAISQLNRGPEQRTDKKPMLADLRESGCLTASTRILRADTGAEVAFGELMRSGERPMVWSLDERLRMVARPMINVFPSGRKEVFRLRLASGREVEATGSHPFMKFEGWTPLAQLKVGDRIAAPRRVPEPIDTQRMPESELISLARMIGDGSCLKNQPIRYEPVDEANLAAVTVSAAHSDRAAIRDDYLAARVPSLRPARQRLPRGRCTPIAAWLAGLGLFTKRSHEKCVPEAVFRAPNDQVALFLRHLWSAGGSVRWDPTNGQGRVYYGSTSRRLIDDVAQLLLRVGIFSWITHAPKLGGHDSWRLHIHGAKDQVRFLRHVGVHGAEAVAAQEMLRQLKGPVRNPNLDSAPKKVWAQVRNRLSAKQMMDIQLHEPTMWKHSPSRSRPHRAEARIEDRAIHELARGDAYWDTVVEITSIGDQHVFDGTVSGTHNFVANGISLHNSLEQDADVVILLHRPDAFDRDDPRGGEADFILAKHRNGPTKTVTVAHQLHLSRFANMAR
Kind of experiment: DnaB intein splicing inhibitors, dose response, biochemical, cell-free fluorescence (AID 449749). Format: functional.

Activity calls are given as the source filed them.

As to `O=C(CNc1cccc2ccccc12)N/N=C/c1ccc([N+](=O)[O-])o1`, the EC50 (usually the concentration needed to bring the measured effect to its halfway point) in experiment [1] is < 100 nM (active); in experiment [2], > 60000 nM (not active). For the same compound, in experiment [3], the IC50 – broadly, the concentration needed to halve the response being measured – is > 118000 nM (inactive). Besides, the concentration at half-maximal activity (AC50) (usually the concentration at which the activity in the assay is half-maximal) in experiment [4] was 5580 nM (active).
Consider `O=C(O)CSc1cc(NS(=O)(=O)c2ccc(Br)cc2)c2ccccc2c1O`, for which the AC50 in experiment [5] is 883 nM (active).
Take `O=C(CC(O)(C(F)(F)F)C(F)(F)F)Nc1ccc(Cl)c(Cl)c1`: in experiment [3], the IC50 was 39000 nM (inactive). For the same compound, the AC50 in experiment [4] is 2440 nM (active).
With `Cc1ccc(NC(=O)C2=C(c3ccccc3)S(=O)(=O)CCS2(=O)=O)cc1`, the values for the EC50 in experiment [1] and in experiment [2] were 1970 nM (active) and 2480 nM (active), respectively. Besides, the AC50 was 2180 nM (active) in experiment [5] and 6540 nM (active) in experiment [4].
